{"source": "patent US10913922B2", "about": "“N-acylated methionine derivatives as food flavoring compounds” (Givaudan S.A., priority 2012, dated 2021)", "key": {"[1]": {"assay": "Expert taster evaluation in lemon beverage", "settings": "1 ppm in lemon beverage (water, 7% sucrose, 0.15% citric acid, lemon flavor), base alone: floral, citral", "protocol": "(§1) Samples were evaluated by expert tasters. Tasters were asked to describe the samples focusing on authentic taste, mouthfeel, fullness, salty-ness, salivation, umami, sweetness, juiciness, richness, long lastingness and fattiness\nBasis water, 7% sucrose, 0.15% citric acid, proprietary lemon flavor"}, "[2]": {"assay": "Expert taster evaluation in beef bouillon", "settings": "base alone: salty, umami, powdery", "protocol": "as §1\nComparison in Beef Bouillon\nBase is Maggi beef bouillon 1 tablet in 500 ml of hot water"}, "[3]": {"assay": "Expert taster evaluation in a mango juice drink", "settings": "1 ppm in mango juice drink base (8% sucrose, 0.1% citric acid, 1% clear mango juice, mango flavour 0.05%); base alone: fruity mango", "protocol": "as §1\nComparison in a Mango Juice Drink\nBase is 8% sucrose, 0.1% citric acid, 1% clear mango juice, proprietary mango flavour @ 0.05%"}, "[4]": {"assay": "Expert taster evaluation in orange beverage", "settings": "1 ppm in orange beverage (water, 7% sugar, 0.1% citric acid, orange flavour 0.06%); base alone: orange, fruity, slightly candy", "protocol": "as §1\nBase is water, 7% sugar, 0.1% citric acid, proprietary orange flavour @ 0.06%"}, "[5]": {"settings": "1 ppm in Maggi beef bouillon (1 tablet in 500 ml hot water)"}}, "note": "Entries after “also recorded” stand apart in the source; their conditions may differ."}
{"smiles": "CCCCCCCC/C=C\\CCCCCCCC(=O)NC(CCSC)C(=O)O", "note": "(centres unmarked) [C18:1-met]", "values": [{"measurement": "taste description by expert tasters", "setting": "[1]", "result": "fresh, less floral, very juicy, very authentic"}, {"measurement": "taste description by expert tasters", "setting": "[2]; [5]", "result": "very strong salty impact and aftertaste; also recorded: very strong salty impact and aftertaste, more fatty, mouthfeel, lingering full bodied"}, {"measurement": "taste description by expert tasters", "setting": "[2]; 25 ppb in Maggi beef bouillon", "result": "more peppery, more salty"}, {"measurement": "taste description by expert tasters", "setting": "[2]; 50 ppb in Maggi beef bouillon", "result": "more salty, more bouillon taste"}, {"measurement": "taste description by expert tasters", "setting": "[3]", "result": "sweeter, juicy, salivating"}, {"measurement": "taste description by expert tasters", "setting": "[4]", "result": "very juicy fresh, authentic, juicy"}]}
{"smiles": "CCCCCC/C=C\\CCCC(=O)NC(CCSC)C(=O)O", "note": "(centres unmarked) [C12:1-met]", "values": [{"measurement": "taste description by expert tasters", "setting": "[1]", "result": "fresh, slightly more citral"}, {"measurement": "taste description by expert tasters", "setting": "[2]; [5]", "result": "more salty"}, {"measurement": "taste description by expert tasters", "setting": "[3]", "result": "ripe full, more juicy, slightly metallic"}, {"measurement": "taste description by expert tasters", "setting": "[4]", "result": "nice orange, fresh"}]}
{"smiles": "CCCCC/C=C\\C/C=C\\CCCCCCCC(=O)NC(CCSC)C(=O)O", "note": "(centres unmarked) [C18:2-met]", "values": [{"measurement": "taste description by expert tasters", "setting": "[2]; [5]", "result": "salivating salty, umami"}, {"measurement": "taste description by expert tasters", "setting": "[3]", "result": "fresh nice juicy"}]}
{"smiles": "CCCCCCCC(=O)N[C@@H](CCSC)C(=O)O", "note": "[C8:0-met]", "values": [{"measurement": "taste description by expert tasters", "setting": "[2]; [5]", "result": "more salty, no additional fullness"}, {"measurement": "taste description by expert tasters", "setting": "[3]", "result": "green fresh, no additional body"}]}
{"smiles": "CCCCCCCCCCCCCCCC(=O)NC(CCSC)C(=O)O", "note": "(centres unmarked) [C16:0-met]", "values": [{"measurement": "taste description by expert tasters", "setting": "[2]; [5]", "result": "salty, full, nice salivating, lingering"}, {"measurement": "taste description by expert tasters", "setting": "[3]", "result": "fatty, full body, juicy, metallic"}, {"measurement": "taste description by expert tasters", "setting": "[4]", "result": "slightly metallic, fresh"}]}
